Data as given in the supplement of paper PMC11451515.

System: SEM cells
Assay: cell viability relative to DMSO control; higher = less cytotoxic
Details: 48 h
Outline: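 Three leukemia lines were tested: NOMO1 and SEM at 500 cells/well and P12-Ichikawa at 1000 cells/well. Each was adapted for at least four passages in each medium and seeded in 5 μl in 1536-well plates, and library compounds in DMSO were pin-dosed from 47 μM to 0.79 nM in 11 threefold steps. After 48 h at 37°C, CellTiter-Glo One luminescence was read. Viability is a percentage relative to DMSO wells on each plate, with cell-free wells as background.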

[1] = HPLM + 10% dialyzed FBS, 0.000781 µM
[2] = HPLM + 10% dialyzed FBS, 0.00234 µM
[3] = HPLM + 10% dialyzed FBS, 0.00702 µM
[4] = HPLM + 10% dialyzed FBS, 0.0211 µM
[5] = HPLM + 10% dialyzed FBS, 0.0632 µM
[6] = HPLM + 10% dialyzed FBS, 0.19 µM
[7] = HPLM + 10% dialyzed FBS, 0.569 µM
[8] = HPLM + 10% dialyzed FBS, 1.71 µM
[9] = HPLM + 10% dialyzed FBS, 5.12 µM
[10] = HPLM + 10% dialyzed FBS, 15.4 µM
[11] = HPLM + 10% dialyzed FBS, 46.1 µM
[12] = RPMI 5 mM glucose + 10% FBS, 0.000781 µM
[13] = RPMI 5 mM glucose + 10% FBS, 0.00234 µM
[14] = RPMI 5 mM glucose + 10% FBS, 0.00702 µM
[15] = RPMI 5 mM glucose + 10% FBS, 0.0211 µM
[16] = RPMI 5 mM glucose + 10% FBS, 0.0632 µM
[17] = RPMI 5 mM glucose + 10% FBS, 0.19 µM
[18] = RPMI 5 mM glucose + 10% FBS, 0.569 µM
[19] = RPMI 5 mM glucose + 10% FBS, 1.71 µM
[20] = RPMI 5 mM glucose + 10% FBS, 5.12 µM
[21] = RPMI 5 mM glucose + 10% FBS, 15.4 µM
[22] = RPMI 5 mM glucose + 10% FBS, 46.1 µM
[23] = RPMI 5 mM glucose + 10% dialyzed FBS, 0.000781 µM
[24] = RPMI 5 mM glucose + 10% dialyzed FBS, 0.00234 µM
[25] = RPMI 5 mM glucose + 10% dialyzed FBS, 0.00702 µM
[26] = RPMI 5 mM glucose + 10% dialyzed FBS, 0.0211 µM
[27] = RPMI 5 mM glucose + 10% dialyzed FBS, 0.0632 µM
[28] = RPMI 5 mM glucose + 10% dialyzed FBS, 0.19 µM
[29] = RPMI 5 mM glucose + 10% dialyzed FBS, 0.569 µM
[30] = RPMI 5 mM glucose + 10% dialyzed FBS, 1.71 µM
[31] = RPMI 5 mM glucose + 10% dialyzed FBS, 5.12 µM
[32] = RPMI 5 mM glucose + 10% dialyzed FBS, 15.4 µM
[33] = RPMI 5 mM glucose + 10% dialyzed FBS, 46.1 µM

SMILES	cell viability [1]	cell viability [2]	cell viability [3]	cell viability [4]	cell viability [5]	cell viability [6]	cell viability [7]	cell viability [8]	cell viability [9]	cell viability [10]	cell viability [11]	cell viability [12]	cell viability [13]	cell viability [14]	cell viability [15]	cell viability [16]	cell viability [17]	cell viability [18]	cell viability [19]	cell viability [20]	cell viability [21]	cell viability [22]	cell viability [23]	cell viability [24]	cell viability [25]	cell viability [26]	cell viability [27]	cell viability [28]	cell viability [29]	cell viability [30]	cell viability [31]	cell viability [32]	cell viability [33]
OCCn1cc(-c2cnc3nnn(Cc4ccc5ncccc5c4)c3n2)cn1	102%	107%	99.5%	98.1%	97.9%	89.3%	89.5%	91.5%	85.3%	72.1%	38.5%	122%	138%	124%	133%	120%	116%	109%	90.7%	82.1%	73.9%	26.6%	84.6%	97.9%	102%	108%	107%	106%	118%	97.3%	82%	60.5%	33.4%
NC(=O)NO	83%	79.5%	89.4%	85.6%	93.5%	96.1%	80.1%	75.2%	31.6%	13.8%	2.15%	99.3%	89.3%	96.1%	94.8%	100%	93%	103%	86.1%	37.2%	7.56%	1.61%	77.9%	79.6%	93%	88.4%	96.2%	84.4%	95.5%	87%	32.3%	5.86%	1.96%
C=CCc1ccc(O)c(-c2ccc(O)c(CC=C)c2)c1	103%	107%	109%	95.3%	120%	112%	105%	56.1%	40.6%	40.4%	37.6%	78.6%	88.8%	93.2%	85.1%	93.6%	108%	79.1%	20%	14.7%	21.4%	17.6%	98.8%	101%	109%	89.6%	109%	107%	94%	27.2%	20.6%	21.4%	24.6%
OCCC#Cc1nc(-c2ccc(F)cc2)c(-c2ccncc2)n1CCCc1ccccc1	86.8%	115%	115%	120%	118%	109%	131%	123%	124%	105%	88.4%	98.3%	122%	112%	118%	103%	130%	116%	127%	126%	107%	85.8%											
Nc1nc(Cl)nc2c1ncn2[C@@H]1O[C@H](CO)[C@@H](O)[C@@H]1F	14.5%	17%	16.4%	15.7%	18%	16.5%	15.1%	16.1%	10.2%	8.98%	4.93%	15.3%	20%	18.8%	16.8%	14.3%	10.8%	9.77%	9.03%	5.46%	3.69%	2.88%	12.6%	14.1%	15.2%	16.5%	14%	11.9%	10.8%	10.3%	8.13%	8.34%	4.01%
CC[C@]1(O)C[C@@H]2CN(CCc3c([nH]c4ccccc34)[C@@](C(=O)OC)(c3cc4c(cc3OC)N(C)[C@H]3[C@@](O)(C(N)=O)[C@H](O)[C@]5(CC)C=CCN6CC[C@]43[C@@H]65)C2)C1	123%	110%	114%	106%	89.2%	43.2%	26.3%	20.5%	20%	15.7%	6.67%												118%	104%	124%	124%	97.8%	44.8%	26.6%	24.3%	20.4%	16.3%	5.01%
N#C/N=C(\NCCCCCCOc1ccc(Cl)cc1)Nc1ccncc1	18.5%	14.6%	11.7%	11.6%	10.7%	9.6%	9.68%	8.04%	7.4%	6.52%	4.48%	11%	12.1%	9.46%	9.27%	8.63%	8.09%	6.61%	4.33%	4.15%	3.83%	1.91%	15%	11%	9.5%	8.99%	8.27%	8.14%	7.35%	6.51%	5.93%	4.36%	2.76%
CN1CCN(CCOc2cc(OC3CCOCC3)c3c(Nc4c(Cl)ccc5c4OCO5)ncnc3c2)CC1	106%	119%	115%	118%	122%	126%	113%	116%	78.4%	61.6%	30.3%	121%	120%	128%	110%	128%	109%	85.5%	109%	62.9%	34.3%	19.7%											
CNC(=O)Nc1ccc(-c2nc(N3CC4CCC(C3)O4)c3cnn(C4CCC5(CC4)OCCO5)c3n2)cc1	109%	106%	97.8%	83.9%	73.8%	53.6%	58.1%	53%	45.9%	34.3%	36.9%	76.6%	77.9%	65.6%	51%	43.2%	36.8%	40.1%	34%	25.3%	22.9%	14.5%	105%	106%	88.7%	80.7%	71.6%	56.2%	59.4%	53.9%	39.6%	31.3%	41.4%
